Reference: patent EP4603105A1, “PHARMACEUTICAL COMPOSITION CONTAINING CYCLIC COMPOUND HAVING SELECTIVE KRAS INHIBITORY EFFECT AGAINST HRAS AND NRAS” (CHUGAI SEIYAKU KABUSHIKI KAISHA, priority 2022, dated 2024)
*1 amine or outer side, *2 acyl side, *3 side chain or, on linkers, in order; H or OH if unused. Where a SMILES comes first, the peptide text is derived from it. Bridges are numbered along the chain shown (N, C = ends). [ ]: non-standard residue; d: D form. The star is where a group is joined. hPhe(3-Cl-4-CF3) = N[C@@H](CCc1ccc(C(F)(F)F)c(Cl)c1)C(=O)O; NPrPhe(4-CF3) = CCCN[C@@H](Cc1ccc(C(F)(F)F)cc1)C(=O)O; Abu(4,4,4-F3) = N[C@@H](CC(F)(F)F)C(=O)O; NMeGly(cPent) = CN[C@H](C(=O)O)C1CCCC1; X9 = CC1(C)CN([*:1])[C@@H]1C(=O)[*:2]; Gly(cBu) = N[C@H](C(=O)O)C1CCC1; NMeD = CN[C@@H](CC(=O)O)C(=O)O; NMeL = CN[C@@H](CC(C)C)C(=O)O; X10 = N#CCN(CC(=O)[*:2])[*:1]; hPip = O=C(O)[C@@H]1CCCCCN1; Morpholide = C1CN(*)CCO1; Ac5c = NC1(C(=O)O)CCCC1; Aze = O=C(O)[C@@H]1CCN1; NcPrGly = O=C(O)CNC1CC1; Abu = CC[C@H](N)C(=O)O; NPrGly = CCCNCC(=O)O; NEtG = CCNCC(=O)O; Sar = CNCC(=O)O

Legend:
[1] = test system: human lung cancer strain NCI-H441; assay type: cell-based
Outline: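 Proliferation was scored by […] measured after the reagent was added to cultures kept at 37°C in 5% carbon dioxide.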

[2] = biological target: GDP-bound NRAS wild-type protein (Homo sapiens, UniProt P01111); assay: Binding to NRAS by surface plasmon resonance (SPR), KD and KD ratio to KRAS; details: ratio of KD for GDP-bound NRAS wild-type protein to KD for KRAS
Sequence of GDP-bound NRAS wild-type protein (P01111 whole entry): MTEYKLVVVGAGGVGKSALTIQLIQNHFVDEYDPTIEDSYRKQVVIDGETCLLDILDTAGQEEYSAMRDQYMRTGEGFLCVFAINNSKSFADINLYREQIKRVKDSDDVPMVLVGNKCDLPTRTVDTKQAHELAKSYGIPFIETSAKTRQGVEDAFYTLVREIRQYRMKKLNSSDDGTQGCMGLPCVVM
Outline: (§1)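 Single-cycle kinetics on GDP-loaded biotin-Avi RAS captured to ~100–300 RU; 75 s ascending injections, 100 µL/min, 30°C. HBS pH 7.4 + 10 mM MgCl2/10 µM GDP/4% DMSO. 1:1 fit, KD.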

[3] = biological target: HRAS wild-type protein (Homo sapiens, UniProt P01112); assay: Binding to HRAS by surface plasmon resonance (SPR), KD and KD ratio to KRAS; details: ratio of KD for HRAS wild-type protein to KD for KRAS
Sequence of HRAS wild-type protein (P01112 whole entry): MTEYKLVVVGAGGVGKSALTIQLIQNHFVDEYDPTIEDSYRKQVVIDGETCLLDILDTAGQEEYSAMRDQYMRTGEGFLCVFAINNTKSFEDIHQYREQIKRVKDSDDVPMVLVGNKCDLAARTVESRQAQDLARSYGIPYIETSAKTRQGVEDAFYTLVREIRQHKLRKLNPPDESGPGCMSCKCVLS
Outline: as §1

Compound | IC50 [1] [nM] | NRAS /KRAS [2] | HRAS /KRAS [3]
CCCN1C(=O)CN(C)C(=O)CN(C)C(=O)[C@H]([C@@H](C)CC)NC(=O)[C@@H]2CCCCCN2C(=O)C[C@@H](C(=O)N2CCOCC2)N(C)C(=O)[C@H](C2CCCC2)N(C)C(=O)C2(CCCC2)NC(=O)[C@@H]2CCCN2C(=O)[C@H](CCc2ccc(C(F)(F)F)c(Cl)c2)NC(=O)CN(C)C(=O)[C@@H]1Cc1ccc(C(F)(F)F)cc1 [PP0247] ([hPip]I[Sar][Sar][NPrPhe(4-CF3)][Sar][hPhe(3-Cl-4-CF3)]P[Ac5c][NMeGly(cPent)][NMeD]-Morpholide; lactam N-11) | 41.3 | B (a compound having 3 or more and less than 10 is denoted as B) | C (A compound having a KD ratio of 0.1 or more and less than 3 is denoted as C)
CCCN1C(=O)CN(C)C(=O)CN(C)C(=O)[C@H](CC)NC(=O)[C@H](CC(C)C)N(C)C(=O)C[C@@H](C(=O)N2CCOCC2)N(C)C(=O)[C@H](C2CCCC2)N(C)C(=O)C2(CCCC2)NC(=O)[C@@H]2CCCN2C(=O)[C@H](CCc2ccc(C(F)(F)F)c(Cl)c2)NC(=O)CN(C)C(=O)[C@@H]1Cc1ccc(C(F)(F)F)cc1 [PP0248] ([NMeL][Abu][Sar][Sar][NPrPhe(4-CF3)][Sar][hPhe(3-Cl-4-CF3)]P[Ac5c][NMeGly(cPent)][NMeD]-Morpholide; lactam N-11) | 84 | B (a compound having 3 or more and less than 10 is denoted as B) | B (a compound having 3 or more and less than 10 is denoted as B)
CCCN1C(=O)CN(C)C(=O)CN(C)C(=O)[C@H](CC(F)(F)F)NC(=O)[C@H](CC(C)C)N(C)C(=O)C[C@@H](C(=O)N2CCOCC2)N(C)C(=O)[C@H](C2CCCC2)N(C)C(=O)C2(CCCC2)NC(=O)[C@@H]2CCCN2C(=O)[C@H](CCc2ccc(C(F)(F)F)c(Cl)c2)NC(=O)CN(C)C(=O)[C@@H]1Cc1ccc(C(F)(F)F)cc1 [PP0249] ([NMeL][Abu(4,4,4-F3)][Sar][Sar][NPrPhe(4-CF3)][Sar][hPhe(3-Cl-4-CF3)]P[Ac5c][NMeGly(cPent)][NMeD]-Morpholide; lactam N-11) | 25.5 | B (a compound having 3 or more and less than 10 is denoted as B) | C (A compound having a KD ratio of 0.1 or more and less than 3 is denoted as C)
CCCN1C(=O)CN(C)C(=O)CN(C)C(=O)[C@H](C2CCC2)NC(=O)[C@H](CC(C)C)N(C)C(=O)C[C@@H](C(=O)N2CCOCC2)N(C)C(=O)[C@H](C2CCCC2)N(C)C(=O)C2(CCCC2)NC(=O)[C@@H]2CCCN2C(=O)[C@H](CCc2ccc(C(F)(F)F)c(Cl)c2)NC(=O)CN(C)C(=O)[C@@H]1Cc1ccc(C(F)(F)F)cc1 [PP0250] ([NMeL][Gly(cBu)][Sar][Sar][NPrPhe(4-CF3)][Sar][hPhe(3-Cl-4-CF3)]P[Ac5c][NMeGly(cPent)][NMeD]-Morpholide; lactam N-11) | 6.7 | B (a compound having 3 or more and less than 10 is denoted as B) | C (A compound having a KD ratio of 0.1 or more and less than 3 is denoted as C)
CCCN1C(=O)CN(C)C(=O)CN(C2CC2)C(=O)[C@H]([C@@H](C)CC)NC(=O)[C@H](CC(C)C)N(C)C(=O)C[C@@H](C(=O)N2CCOCC2)N(C)C(=O)[C@H](C2CCCC2)N(C)C(=O)C2(CCCC2)NC(=O)[C@@H]2CCCN2C(=O)[C@H](CCc2ccc(C(F)(F)F)c(Cl)c2)NC(=O)CN(C)C(=O)[C@@H]1Cc1ccc(C(F)(F)F)cc1 [PP0252] ([NMeL]I[NcPrGly][Sar][NPrPhe(4-CF3)][Sar][hPhe(3-Cl-4-CF3)]P[Ac5c][NMeGly(cPent)][NMeD]-Morpholide; lactam N-11) | 19.4 | B (a compound having 3 or more and less than 10 is denoted as B) | B (a compound having 3 or more and less than 10 is denoted as B)
CCCN1CC(=O)N(C)CC(=O)N(CCC)[C@@H](Cc2ccc(C(F)(F)F)cc2)C(=O)N(C)CC(=O)N[C@@H](CCc2ccc(C(F)(F)F)c(Cl)c2)C(=O)N2CCC[C@H]2C(=O)NC2(CCCC2)C(=O)N(C)[C@@H](C2CCCC2)C(=O)N(C)[C@H](C(=O)N2CCOCC2)CC(=O)N(C)[C@@H](CC(C)C)C(=O)N[C@@H]([C@@H](C)CC)C1=O [PP0253] ([NMeL]I[NPrGly][Sar][NPrPhe(4-CF3)][Sar][hPhe(3-Cl-4-CF3)]P[Ac5c][NMeGly(cPent)][NMeD]-Morpholide; lactam N-11) | 15.1 | B (a compound having 3 or more and less than 10 is denoted as B) | B (a compound having 3 or more and less than 10 is denoted as B)
CCCN1C(=O)CN(C)C(=O)CN(CC#N)C(=O)[C@H]([C@@H](C)CC)NC(=O)[C@H](CC(C)C)N(C)C(=O)C[C@@H](C(=O)N2CCOCC2)N(C)C(=O)[C@H](C2CCCC2)N(C)C(=O)C2(CCCC2)NC(=O)[C@@H]2CCCN2C(=O)[C@H](CCc2ccc(C(F)(F)F)c(Cl)c2)NC(=O)CN(C)C(=O)[C@@H]1Cc1ccc(C(F)(F)F)cc1 [PP0254] ([NMeL]I[X10][Sar][NPrPhe(4-CF3)][Sar][hPhe(3-Cl-4-CF3)]P[Ac5c][NMeGly(cPent)][NMeD]-Morpholide; lactam N-11) | 5.6 | B (a compound having 3 or more and less than 10 is denoted as B) | C (A compound having a KD ratio of 0.1 or more and less than 3 is denoted as C)
CCCN1C(=O)CN(C)C(=O)[C@H]2N(CC2(C)C)C(=O)[C@H]([C@@H](C)CC)NC(=O)[C@H](CC(C)C)N(C)C(=O)C[C@@H](C(=O)N2CCOCC2)N(C)C(=O)[C@H](C2CCCC2)N(C)C(=O)C2(CCCC2)NC(=O)[C@@H]2CCCN2C(=O)[C@H](CCc2ccc(C(F)(F)F)c(Cl)c2)NC(=O)CN(C)C(=O)[C@@H]1Cc1ccc(C(F)(F)F)cc1 [PP0256] ([NMeL]I[X9][Sar][NPrPhe(4-CF3)][Sar][hPhe(3-Cl-4-CF3)]P[Ac5c][NMeGly(cPent)][NMeD]-Morpholide; lactam N-11) | 26.6 | B (a compound having 3 or more and less than 10 is denoted as B) | C (A compound having a KD ratio of 0.1 or more and less than 3 is denoted as C)
CCCN1C(=O)[C@@H]2CCN2C(=O)CN(CC)C(=O)[C@H]([C@@H](C)CC)NC(=O)[C@H](CC(C)C)N(C)C(=O)C[C@@H](C(=O)N2CCOCC2)N(C)C(=O)[C@H](C2CCCC2)N(C)C(=O)C2(CCCC2)NC(=O)[C@@H]2CCCN2C(=O)[C@H](CCc2ccc(C(F)(F)F)c(Cl)c2)NC(=O)CN(C)C(=O)[C@@H]1Cc1ccc(C(F)(F)F)cc1 [PP0259] ([NMeL]I[NEtG][Aze][NPrPhe(4-CF3)][Sar][hPhe(3-Cl-4-CF3)]P[Ac5c][NMeGly(cPent)][NMeD]-Morpholide; lactam N-11) | 10.2 | C (A compound having a KD ratio of 0.1 or more and less than 3 is denoted as C) | B (a compound having 3 or more and less than 10 is denoted as B)
